In brackets after ≈: the same amount, converted by molar mass.
Key:
[1] = system: Staphylococcus aureus; test: Antimicrobial activity against Staphylococcus aureus; type: functional
[2] = system: Escherichia coli; test: Antimicrobial activity against Escherichia coli; type: functional
[3] = system: Pseudomonas aeruginosa; test: Antimicrobial activity against Pseudomonas aeruginosa; type: functional
[4] = system: Escherichia coli; test: Anti-biofilm activity against Escherichia coli; type: functional
[5] = system: Plasmodium falciparum; test: Antimalarial activity against Plasmodium falciparum Dd2 by HRP2 assay; type: functional, organism-based
[6] = system: Plasmodium falciparum; test: Antimalarial activity against erythrocytic stage of Plasmodium falciparum by HRP2 assay; type: functional, organism-based
[7] = system: Staphylococcus aureus; test: Anti-biofilm activity against Staphylococcus aureus 3202 after 24 hrs in aerobic condition by broth microdilution assay; type: functional
[8] = system: Plasmodium berghei; test: Antimalarial activity against Plasmodium berghei infected in human Huh7 cells after 1 hr by luciferase reporter gene assay; type: functional, organism-based; settings: Huh-7, 1 h
[9] = system: Plasmodium falciparum; test: Antimalarial activity against chloroquine-sensitive Plasmodium falciparum 3D7 by HRP2 assay; type: functional, organism-based
[10] = system: Staphylococcus aureus; test: Anti-biofilm activity against Staphylococcus aureus 630 after 24 hrs in aerobic condition by broth microdilution assay; type: functional
[11] = system: Punta Toro virus; test: Antiviral activity against Punta Toro virus; type: functional, organism-based
[12] = system: Mammalian orthoreovirus 1; test: Antiviral activity against Reovirus-1; type: functional, organism-based
[13] = system: Sindbis virus; test: Antiviral activity against Sindbis virus; type: functional, organism-based
[14] = system: Coxsackievirus B4; test: Antiviral activity against Coxsackievirus B4; type: functional, organism-based; settings: Enterovirus B
[15] = system: Human coronavirus 229E; test: Antiviral activity against Human coronavirus 229E; type: functional, organism-based

| IC50 [5] [µM] | IC50 [6] [µM] | IC50 [8] [µM] | IC50 [9] [µM] | EC50 [15] [µM] | SMILES | also measured |
| --- | --- | --- | --- | --- | --- | --- |
|  |  |  |  |  | COc1cc(NC(C)CCCNC(=O)NC(C(=O)NC(c2ccccc2)c2ccccc2)c2ccc(Cl)cc2)c2ncccc2c1 (centres undefined) | MIC [1]: 6.5 µg/mL (≈ 10.2 µM); MIC [2]: 25 µg/mL (≈ 39.3 µM); MIC [3]: 25 µg/mL (≈ 39.3 µM); MBEC [4]: 6.25 to 50 µg/mL |
| 7.74 to 18.4 | 7.74 to 18.4 | 0.11 to 0.39 | 7.74 to 18.4 |  | COc1cc(NC(C)CCCNC(=O)/C=C/C(=O)Nc2cccc(Cl)c2)c2ncccc2c1 (centres undefined) | EC50 [11]: 3.1 to 5.5 µM; EC50 [12]: 3.1 to 5.5 µM; EC50 [13]: 3.1 to 5.5 µM |
| 7.74 to 18.4 | 7.74 to 18.4 | 0.11 to 0.39 | 7.74 to 18.4 |  | COc1cc(NC(C)CCCNC(=O)/C=C/C(=O)Nc2cccc(C(F)(F)F)c2)c2ncccc2c1 (centres undefined) | EC50 [11]: 3.1 to 5.5 µM; EC50 [12]: 3.1 to 5.5 µM; EC50 [14]: 3.1 µM; EC50 [13]: 3.1 to 5.5 µM |
|  |  |  |  |  | COc1cc(NC(C)CCCNC(=O)NC(CC(C)C)C(=O)NC(c2ccccc2)c2ccccc2)c2ncccc2c1 (centres undefined) | MIC [1]: 6.5 µg/mL (≈ 11.2 µM) |
| 7.74 to 18.4 | 7.74 to 18.4 | 0.11 to 0.39 | 7.74 to 18.4 |  | COc1cc(NC(C)CCCNC(=O)/C=C/C(=O)Nc2ccc(C(F)(F)F)cc2)c2ncccc2c1 (centres undefined) |  |
|  |  |  |  | 7.9 to 15 | COc1cc(NC(C)CCCNC(=O)NNC(=O)/C(C)=C/c2ccccc2)c2ncccc2c1 (centres undefined) |  |
|  |  |  |  |  | COc1cc(NC(C)CCCNC(=O)NC(C(=O)NC(c2ccccc2)c2ccc(Cl)cc2)c2ccccc2)c2ncccc2c1 (centres undefined) | MIC [2]: 25 µg/mL (≈ 39.3 µM); MIC [3]: 25 µg/mL (≈ 39.3 µM); MBEC [4]: 6.25 to 50 µg/mL |
|  |  |  |  | 7.9 to 15 | COc1cc(NC(C)CCCNC(=O)NNC(=O)/C=C/c2ccc(C(F)(F)F)cc2)c2ncccc2c1 (centres undefined) |  |
|  |  |  |  | 7.9 to 15 | COc1cc(NC(C)CCCNC(=O)NNC(=O)/C=C/c2cccc(C(F)(F)F)c2)c2ncccc2c1 (centres undefined) |  |
|  |  |  |  | 7.9 to 15 | COc1cc(NC(C)CCCNC(=O)NNC(=O)/C=C/c2cc(C(F)(F)F)cc(C(F)(F)F)c2)c2ncccc2c1 (centres undefined) |  |
| 7.74 to 18.4 | 7.74 to 18.4 | 0.11 to 0.39 | 7.74 to 18.4 |  | COc1cc(NC(C)CCCNC(=O)/C=C/C(=O)Nc2ccc(Cl)cc2)c2ncccc2c1 (centres undefined) |  |
|  |  |  |  | 7.9 to 15 | COc1cc(NC(C)CCCNC(=O)NNC(=O)/C=C/c2ccc3c(c2)OCO3)c2ncccc2c1 (centres undefined) |  |

| SMILES | IC50 [5] [µM] | IC50 [6] [µM] | IC50 [8] [µM] | IC50 [9] [µM] | EC50 [15] [µM] | also measured |
| --- | --- | --- | --- | --- | --- | --- |
| COc1cc(NC(C)CCCNC(=O)/C=C/C(=O)Nc2cccc(F)c2)c2ncccc2c1 (centres undefined) | 7.74 to 18.4 | 7.74 to 18.4 | 0.11 to 0.39 | 7.74 to 18.4 |  | MBEC [7]: 6.3 µg/mL; MBEC [10]: 6.3 µg/mL |
| COc1cc(NC(C)CCCNC(=O)/C=C/C(=O)Nc2ccc(F)cc2)c2ncccc2c1 (centres undefined) | 7.74 to 18.4 | 7.74 to 18.4 | 0.11 to 0.39 | 7.74 to 18.4 |  | MBEC [7]: 6.3 µg/mL; MBEC [10]: 6.3 µg/mL |
| COc1cc(NC(C)CCCN)c2ncccc2c1 (centres undefined) [PRIMAQUINE] |  |  | 8.4 |  |  |  |
